The source made the active and inactive calls. The calls are words filed in the database; no cut-off is given here.
Tests used:
[1] = test system: NCI-H1975; assay: Antiproliferative activity against human NCI-H1975 cells assessed as inhibition of cell growth measured after 72 hrs by MTT assay; type: functional, cell-based; conditions: NCI-H1975, 72 h
[2] = target: Epidermal growth factor receptor (Homo sapiens, UniProt P00533, C797S/EX19DEL/T790M); assay: Inhibition of EGFR Del19/T790M/C797S triple mutant (unknown origin) preincubated for 10 mins followed by substrate addition and measured after 50 mins in presence of ATP by HTRF assay
[3] = target: Epidermal growth factor receptor (Homo sapiens, UniProt P00533, C797S/L858R/T790M); assay: Inhibition of EGFR L858R/T790M/C797S triple mutant (unknown origin) preincubated for 10 mins followed by substrate addition and measured after 50 mins in presence of ATP by HTRF assay
[4] = target: Epidermal growth factor receptor (Homo sapiens, UniProt P00533); assay: Inhibition of wild type EGFR (unknown origin) at 100 nM preincubated for 10 mins followed by substrate addition and measured after 50 mins in presence of ATP by HTRF assay relative to control; conditions: time 60.0 min
[5] = target: Tyrosine-protein kinase ABL1 (Homo sapiens) (UniProt P00519); assay: Inhibition of Abl (unknown origin) by HTRF assay relative to control; conditions: concentration not given here
[6] = target: Dual specificity mitogen-activated protein kinase kinase; MEK1/2 (Homo sapiens) (UniProt P36507+Q02750); assay: Inhibition of MEK1/2 (unknown origin) by HTRF assay relative to control; type: protein assay; conditions: concentration not given here
[7] = target: Platelet-derived growth factor receptor alpha (Homo sapiens) (UniProt P16234); assay: Inhibition of PDGFR alpha (unknown origin) by HTRF assay relative to control; conditions: concentration not given here
[8] = target: Proto-oncogene tyrosine-protein kinase ROS (Homo sapiens) (UniProt P08922); assay: Inhibition of ROS (unknown origin) by HTRF assay relative to control; conditions: concentration not given here
[9] = target: Proto-oncogene tyrosine-protein kinase Src (Homo sapiens) (UniProt P12931); assay: Inhibition of Src (unknown origin) by HTRF assay relative to control; conditions: concentration not given here
[10] = species: Homo sapiens; assay: Inhibition of VGFR (unknown origin) by HTRF assay relative to control; conditions: concentration not given here
[11] = test system: HCC827; assay: Inhibition of colony formation in human HCC827 cells measured after 14 days by crystal violet staining based analysis; type: functional, cell-based; conditions: HCC827, 336 h
[12] = test system: HCC827; assay: Inhibition of colony formation in human HCC827 cells at 10 to 30 nM measured after 14 days by crystal violet staining based analysis; type: functional, cell-based; conditions: dose 10-30 nM, time 14.0 day
[13] = test system: HCC827; assay: Induction of cell cycle arrest in human HCC827 cells assessed as accumulation of cells at G0/G1 phase at 10 nM measured after 24 hrs by PI staining based flow cytometry analysis (reference value: 54.36%); type: functional
[14] = test system: HCC827; assay: Induction of cell cycle arrest in human HCC827 cells assessed as accumulation of cells at G0/G1 phase at 30 nM measured after 24 hrs by PI staining based flow cytometry analysis (reference value: 54.36%); type: functional
[15] = test system: HCC827; assay: Induction of cell cycle arrest in human HCC827 cells assessed as accumulation of cells at S phase at 30 nM measured after 24 hrs by PI staining based flow cytometry analysis (reference value: 28.81%); type: functional
[16] = test system: HCC827; assay: Inhibition of cell migration in human HCC827 cells at 10 to 100 nM measured upto 24 hrs by scratch-wound assay; type: functional, cell-based; conditions: dose 10-100 nM
[17] = test system: HCC827; assay: Induction of apoptosis in human HCC827 cells assessed as viable cells at 100 nM measured after 24 hrs by annexin V/PI staining based flu cytometry analysis (reference value: 84.0%); type: functional; conditions: read-out: Activity
[18] = test system: HCC827; assay: Induction of apoptosis in human HCC827 cells assessed as early apoptotic cells at 30 nM measured after 24 hrs by annexin V/PI staining based flu cytometry analysis (reference value: 3.2%); type: functional
[19] = test system: HCC827; assay: Induction of apoptosis in human HCC827 cells assessed as early apoptotic cells at 100 nM measured after 24 hrs by annexin V/PI staining based flu cytometry analysis (reference value: 3.2%); type: functional
[20] = test system: HCC827; assay: Induction of apoptosis in human HCC827 cells assessed as late apoptotic cells at 30 nM measured after 24 hrs by annexin V/PI staining based flu cytometry analysis (reference value: 5.50%); type: functional
[21] = test system: HCC827; assay: Induction of apoptosis in human HCC827 cells assessed as late apoptotic cells at 100 nM measured after 24 hrs by annexin V/PI staining based flu cytometry analysis (reference value: 5.50%); type: functional
[22] = test system: HCC827; assay: Induction of apoptosis in human HCC827 cells assessed as necrotic cells at 100 nM measured after 24 hrs by annexin V/PI staining based flu cytometry analysis (reference value: 7.34%); type: functional
[23] = test system: HCC827; assay: Induction of apoptosis in human HCC827 cells assessed as activation of PARP level measured after 48 hrs by Western blot analysis; type: functional, cell-based; conditions: dose 10-400 nM
[24] = test system: HCC827; assay: Induction of apoptosis in human HCC827 cells assessed as activation of caspase-3 level measured after 48 hrs by Western blot analysis; type: functional, cell-based; conditions: dose 10-400 nM
[25] = test system: HCC827; assay: Induction of apoptosis in human HCC827 cells assessed as activation of cleaved-PARP level measured after 48 hrs by Western blot analysis; type: functional, cell-based; conditions: dose 10-400 nM
[26] = test system: HCC827; assay: Induction of apoptosis in human HCC827 cells assessed as activation of cleaved-caspase-3 level measured after 48 hrs by Western blot analysis; type: functional, cell-based; conditions: dose 10-400 nM
[27] = test system: HCC827; assay: Antitumor activity against human HCC827 cells xenografted in BALB/c nude mouse assessed as tumor growth inhibition at 10 mg/kg/day, po measured every three days for 21 days by vernier caliper based analysis relative to control; type: functional; conditions: HCC827, 504 h, time 21 day, read-out: TGI
[28] = test system: Epidermal growth factor receptor (Homo sapiens), P00533 [UNDEFINED MUTATION]; conditions: dose 100.0 nM

Sequence of Proto-oncogene tyrosine-protein kinase Src (Homo sapiens) (P12931 2-536 limits assumed): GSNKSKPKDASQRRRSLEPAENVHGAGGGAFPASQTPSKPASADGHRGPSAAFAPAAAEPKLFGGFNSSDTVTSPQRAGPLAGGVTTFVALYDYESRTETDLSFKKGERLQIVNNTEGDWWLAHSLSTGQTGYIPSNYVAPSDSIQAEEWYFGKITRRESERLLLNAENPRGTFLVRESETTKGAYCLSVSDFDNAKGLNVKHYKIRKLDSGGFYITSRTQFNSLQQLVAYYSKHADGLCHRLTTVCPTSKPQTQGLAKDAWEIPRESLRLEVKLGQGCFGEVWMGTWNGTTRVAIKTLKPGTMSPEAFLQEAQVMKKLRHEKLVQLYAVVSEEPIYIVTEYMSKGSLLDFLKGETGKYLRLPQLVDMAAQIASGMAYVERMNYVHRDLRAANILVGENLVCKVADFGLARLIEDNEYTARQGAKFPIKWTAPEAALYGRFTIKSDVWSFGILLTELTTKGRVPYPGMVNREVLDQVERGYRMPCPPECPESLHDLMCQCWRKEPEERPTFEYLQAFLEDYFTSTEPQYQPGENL
Sequence of Platelet-derived growth factor receptor alpha (Homo sapiens) (P16234 whole entry): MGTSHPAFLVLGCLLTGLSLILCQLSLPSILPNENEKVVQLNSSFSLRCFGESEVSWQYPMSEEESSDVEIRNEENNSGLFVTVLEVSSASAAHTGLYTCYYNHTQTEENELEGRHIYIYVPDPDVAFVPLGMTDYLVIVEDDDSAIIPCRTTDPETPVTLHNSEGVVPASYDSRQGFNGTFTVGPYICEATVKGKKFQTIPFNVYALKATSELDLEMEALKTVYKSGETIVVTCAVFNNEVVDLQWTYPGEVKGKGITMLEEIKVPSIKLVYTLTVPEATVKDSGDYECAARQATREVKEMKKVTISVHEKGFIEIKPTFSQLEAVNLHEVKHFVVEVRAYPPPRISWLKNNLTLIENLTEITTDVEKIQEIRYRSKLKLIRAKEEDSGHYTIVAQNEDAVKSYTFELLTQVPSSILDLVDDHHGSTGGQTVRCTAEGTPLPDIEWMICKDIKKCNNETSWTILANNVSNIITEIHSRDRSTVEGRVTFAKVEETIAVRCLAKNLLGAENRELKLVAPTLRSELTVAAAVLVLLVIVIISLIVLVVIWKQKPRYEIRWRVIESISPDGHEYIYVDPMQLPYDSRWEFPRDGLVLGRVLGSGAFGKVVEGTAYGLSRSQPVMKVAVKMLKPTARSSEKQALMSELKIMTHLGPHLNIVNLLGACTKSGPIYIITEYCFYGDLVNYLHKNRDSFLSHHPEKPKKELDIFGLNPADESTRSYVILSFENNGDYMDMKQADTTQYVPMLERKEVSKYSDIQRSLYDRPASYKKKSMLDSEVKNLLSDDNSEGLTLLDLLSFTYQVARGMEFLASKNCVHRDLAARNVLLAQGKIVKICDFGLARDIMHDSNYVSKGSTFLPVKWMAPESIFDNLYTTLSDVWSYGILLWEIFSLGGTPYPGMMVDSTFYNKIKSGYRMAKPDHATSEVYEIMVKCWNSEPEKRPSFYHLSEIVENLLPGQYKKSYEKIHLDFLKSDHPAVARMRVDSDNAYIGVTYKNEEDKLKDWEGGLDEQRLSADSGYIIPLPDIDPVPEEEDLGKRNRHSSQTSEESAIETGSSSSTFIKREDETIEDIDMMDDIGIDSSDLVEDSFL
Sequence of Epidermal growth factor receptor (Homo sapiens, UniProt P00533, C797S/L858R/T790M) (P00533 25-1210 T790M/C797S/L858R limits assumed): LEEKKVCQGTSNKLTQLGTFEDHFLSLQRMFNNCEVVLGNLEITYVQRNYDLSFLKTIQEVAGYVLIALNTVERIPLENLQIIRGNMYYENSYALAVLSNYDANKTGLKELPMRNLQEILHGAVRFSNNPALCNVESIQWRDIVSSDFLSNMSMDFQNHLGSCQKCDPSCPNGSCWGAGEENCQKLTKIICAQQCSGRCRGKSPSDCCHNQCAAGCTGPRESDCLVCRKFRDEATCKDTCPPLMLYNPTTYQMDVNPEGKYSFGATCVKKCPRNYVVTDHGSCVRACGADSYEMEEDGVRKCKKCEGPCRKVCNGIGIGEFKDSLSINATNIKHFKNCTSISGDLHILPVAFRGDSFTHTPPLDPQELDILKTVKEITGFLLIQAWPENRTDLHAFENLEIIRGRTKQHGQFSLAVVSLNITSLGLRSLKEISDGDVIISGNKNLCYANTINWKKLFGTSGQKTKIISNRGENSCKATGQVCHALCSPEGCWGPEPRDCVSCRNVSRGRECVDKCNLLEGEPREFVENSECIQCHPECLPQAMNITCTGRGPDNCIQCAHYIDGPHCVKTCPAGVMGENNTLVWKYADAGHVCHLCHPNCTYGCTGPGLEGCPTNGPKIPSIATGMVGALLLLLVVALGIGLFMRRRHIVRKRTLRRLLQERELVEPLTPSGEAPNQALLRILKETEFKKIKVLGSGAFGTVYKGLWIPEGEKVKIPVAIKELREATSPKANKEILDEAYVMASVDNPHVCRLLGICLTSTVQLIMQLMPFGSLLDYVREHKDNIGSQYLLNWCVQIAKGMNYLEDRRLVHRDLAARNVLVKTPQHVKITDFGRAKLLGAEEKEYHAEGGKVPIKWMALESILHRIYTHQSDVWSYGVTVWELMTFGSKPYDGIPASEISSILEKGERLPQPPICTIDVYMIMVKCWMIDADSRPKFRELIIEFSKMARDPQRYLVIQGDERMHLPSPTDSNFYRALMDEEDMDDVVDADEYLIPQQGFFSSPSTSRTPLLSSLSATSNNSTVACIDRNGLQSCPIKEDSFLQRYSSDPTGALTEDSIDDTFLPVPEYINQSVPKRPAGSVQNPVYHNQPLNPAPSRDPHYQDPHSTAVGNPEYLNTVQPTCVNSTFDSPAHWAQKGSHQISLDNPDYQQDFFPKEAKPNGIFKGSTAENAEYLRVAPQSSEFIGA
Sequence of Tyrosine-protein kinase ABL1 (Homo sapiens) (P00519 whole entry): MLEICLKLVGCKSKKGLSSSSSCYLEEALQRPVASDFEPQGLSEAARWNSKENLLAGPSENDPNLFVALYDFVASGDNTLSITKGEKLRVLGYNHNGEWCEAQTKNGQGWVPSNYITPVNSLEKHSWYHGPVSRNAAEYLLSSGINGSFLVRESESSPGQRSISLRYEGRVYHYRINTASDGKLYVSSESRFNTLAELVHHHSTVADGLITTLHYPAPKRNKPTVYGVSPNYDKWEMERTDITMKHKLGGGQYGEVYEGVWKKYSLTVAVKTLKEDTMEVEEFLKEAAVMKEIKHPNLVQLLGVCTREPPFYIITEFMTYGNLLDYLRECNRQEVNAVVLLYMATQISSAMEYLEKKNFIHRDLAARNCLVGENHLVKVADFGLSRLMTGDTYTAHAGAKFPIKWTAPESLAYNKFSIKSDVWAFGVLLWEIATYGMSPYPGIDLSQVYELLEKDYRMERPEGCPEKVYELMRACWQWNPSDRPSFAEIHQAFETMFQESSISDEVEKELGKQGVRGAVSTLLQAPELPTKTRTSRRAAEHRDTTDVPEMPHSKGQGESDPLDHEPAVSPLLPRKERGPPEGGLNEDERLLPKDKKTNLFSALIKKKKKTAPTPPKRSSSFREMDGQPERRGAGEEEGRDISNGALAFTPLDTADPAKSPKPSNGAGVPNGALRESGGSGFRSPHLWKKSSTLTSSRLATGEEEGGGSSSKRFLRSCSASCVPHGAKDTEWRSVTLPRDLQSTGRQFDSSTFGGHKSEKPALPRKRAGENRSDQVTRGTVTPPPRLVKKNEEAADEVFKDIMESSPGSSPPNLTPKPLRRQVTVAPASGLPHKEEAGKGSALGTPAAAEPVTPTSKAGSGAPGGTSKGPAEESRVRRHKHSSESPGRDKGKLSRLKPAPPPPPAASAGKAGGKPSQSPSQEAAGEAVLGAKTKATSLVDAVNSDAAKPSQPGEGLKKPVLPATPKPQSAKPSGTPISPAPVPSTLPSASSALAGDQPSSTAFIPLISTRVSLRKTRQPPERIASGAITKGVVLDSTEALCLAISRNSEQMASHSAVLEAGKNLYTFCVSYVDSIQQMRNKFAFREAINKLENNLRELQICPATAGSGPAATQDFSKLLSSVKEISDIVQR
Sequence of Dual specificity mitogen-activated protein kinase kinase; MEK1/2 (Homo sapiens) (P36507 whole entry, looked up): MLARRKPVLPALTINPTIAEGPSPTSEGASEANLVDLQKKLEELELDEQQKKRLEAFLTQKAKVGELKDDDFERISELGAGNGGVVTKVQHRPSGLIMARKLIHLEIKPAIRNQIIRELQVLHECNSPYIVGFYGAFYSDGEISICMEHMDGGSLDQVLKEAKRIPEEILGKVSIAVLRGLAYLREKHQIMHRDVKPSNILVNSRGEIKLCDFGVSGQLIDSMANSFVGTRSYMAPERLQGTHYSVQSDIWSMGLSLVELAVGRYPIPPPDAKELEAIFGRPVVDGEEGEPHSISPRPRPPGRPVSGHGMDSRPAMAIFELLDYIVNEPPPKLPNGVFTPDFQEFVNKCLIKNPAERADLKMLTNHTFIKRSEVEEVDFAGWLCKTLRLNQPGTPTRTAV
Sequence of Dual specificity mitogen-activated protein kinase kinase; MEK1/2 (Homo sapiens) (Q02750 whole entry, looked up): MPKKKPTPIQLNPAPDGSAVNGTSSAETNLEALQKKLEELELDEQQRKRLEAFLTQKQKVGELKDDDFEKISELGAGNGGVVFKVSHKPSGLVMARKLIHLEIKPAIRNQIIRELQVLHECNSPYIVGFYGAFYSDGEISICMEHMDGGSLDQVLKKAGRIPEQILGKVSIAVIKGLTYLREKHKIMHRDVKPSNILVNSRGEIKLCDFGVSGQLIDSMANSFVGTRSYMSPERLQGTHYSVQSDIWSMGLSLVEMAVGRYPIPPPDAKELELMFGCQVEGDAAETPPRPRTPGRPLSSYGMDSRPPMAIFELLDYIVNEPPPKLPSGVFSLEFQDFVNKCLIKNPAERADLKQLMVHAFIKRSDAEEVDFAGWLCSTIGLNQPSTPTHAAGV

With `O=C(NO)c1sccc1Nc1nc(Nc2ccc(N3CCOCC3)cc2)ncc1Cl` as the molecule, how does the IC50 [1] read?
The IC50 was 168 nM.

What about the IC50 [2] of the same molecule?
The IC50 was 16.1 nM.

And the IC50 [3]?
Its IC50 is 11.8 nM.

And the inhibition [4]?
Its inhibition is 99.5%.

What about the inhibition [5] of the same molecule?
The inhibition was under 70%.

What about the inhibition [6] of the same molecule?
Its inhibition is under 70%.

What about the inhibition [7] of the same molecule?
The inhibition was under 70%.

What about the inhibition [8] of the same molecule?
Its inhibition is under 70%.

And the inhibition [9]?
The inhibition was under 70%.

What about the inhibition [10] of the same molecule?
The inhibition was under 70%.

And the IC50 [11]?
The IC50 was 24.6 nM.

What about the inhibition [12] of the same molecule?
Its inhibition is “Active”.

And the Activity [13]?
The Activity was 66.03%.

What about the Activity [14] of the same molecule?
Its Activity is 68.63%.

And the Activity [15]?
The Activity was 12.31%.

What about the inhibition [16] of the same molecule?
The inhibition was “Active”.

And the viability at 0.1 µM [17]?
Its viability at 0.1 µM is 76%.

And the Activity [18]?
The Activity was 11.4%.

What about the Activity [19] of the same molecule?
The Activity was 3.41%.

What about the Activity [20] of the same molecule?
Its Activity is 10.4%.

And the Activity [21]?
The Activity was 14.3%.

What about the Activity [22] of the same molecule?
Its Activity is 6.32%.

What about the Activity [23] of the same molecule?
The Activity was “Dose-Dependent Effect”.

And the Activity [24]?
Its Activity is “Dose-Dependent Effect”.

And the Activity [25]?
Its Activity is “Dose-Dependent Effect”.

What about the Activity [26] of the same molecule?
Its Activity is “Dose-Dependent Effect”.

What about the inhibition in vivo at 10 mg/kg/day [27] of the same molecule?
The inhibition in vivo at 10 mg/kg/day was 50.6%.

And the inhibition [28]?
Its inhibition is 88.6%.

— ChEMBL document CHEMBL5518185, “Design, synthesis and antitumor activity of 4-arylamine substituted pyrimidine derivatives as noncovalent EGFR inhibitors overcoming C797S mutation” (Eur J Med Chem, 2024)
